From patent US11471512B2, “Pharmaceutical compositions of a peptide” (Merck Sharp & Dohme Corp., priority 2019, dated 2022)
Starred links: 1 amine or outer side, 2 acyl side, 3 side chain; linkers in the order of their positions; H or OH if unused. Non-standard residues stand in square brackets, D forms with d. Residues, ends and D or L forms follow the SMILES beside them. Groups on a side chain read outwards from the residue. *: point of attachment. γGlu = O=C(O)[C@H](CCC(=O)[*:2])N[*:1]; Palmitoyl = CCCCCCCCCCCCCCCC(=O)*; Aib = CC(C)(N)C(=O)O

Assays:
[1] = Water solubility of the peptide as a function of pH; type: physicochemical; conditions: between pH 4 and pH 6
[2] = Chemical stability of the peptide in aqueous formulation as a function of pH; type: physicochemical; conditions: above pH 7.6

- water solubility [1]: poor water solubility
- chemical stability [2]: poor chemical stability
SMILES: CCCCCCCCCCCCCCCC(=O)N[C@@H](CCC(=O)N[C@@H](CCC(=O)NCCCC[C@H](NC(=O)[C@H](CC(=O)O)NC(=O)[C@H](CO)NC(=O)[C@@H](NC(=O)[C@H](Cc1ccccc1)NC(=O)[C@@H](NC(=O)CNC(=O)[C@H](CCC(N)=O)NC(=O)C(C)(C)NC(=O)[C@@H](N)Cc1c[nH]cn1)[C@@H](C)O)[C@@H](C)O)C(=O)N[C@@H](CO)C(=O)N[C@@H](CCCCN)C(=O)N[C@@H](Cc1ccc(O)cc1)C(=O)N[C@@H](CC(C)C)C(=O)N[C@@H](CC(=O)O)C(=O)NC(C)(C)C(=O)N[C@@H](CCCNC(=N)N)C(=O)N[C@@H](C)C(=O)N[C@@H](C)C(=O)N[C@@H](CCC(N)=O)C(=O)N[C@@H](CC(=O)O)C(=O)N[C@@H](Cc1ccccc1)C(=O)N[C@H](C(=O)N[C@@H](CCC(N)=O)C(=O)N[C@@H](Cc1c[nH]c2ccccc12)C(=O)N[C@@H](CC(C)C)C(=O)N[C@@H](CCSC)C(=O)N[C@@H](CC(N)=O)C(=O)N[C@H](C(=O)N[C@@H](CCCCN)C(=O)N[C@@H](CCC(N)=O)C(=O)O)[C@@H](C)O)C(C)C)C(=O)O)C(=O)O [peptide of SEQ ID NO. 1, HUQGTFTSD K(γGlu-γGlu-C16) SKYLD aibRAAQDFVQWLMNTKγGlu-amide] (H-H[Aib]QGTFTSDK([γGlu-γGlu-Palmitoyl])SKYLD[Aib]RAAQDFVQWLMNTKQ-OH; N-terminus and C-terminus assumed)
